Values of other authors as cited in patent US20220184102A1, “COMPOSITIONS AND METHODS FOR TREATING AGE-RELATED MACULAR DEGENERATION” (priority 2019, published 2022).

Experiments:
intestinal flora = conditions: 20 mg twice-daily for 9 months
chronic periodontitis = conditions: 20 mg twice daily, two years
[1] = test system: early seropositive rheumatoid arthritis; conditions: 20 mg twice-daily (subantimicrobial dose) plus MTX
[2] = test system: neovascular exudative AMD; conditions: oral minocycline combined with reduced-fluence PDT, intravitreal ranibizumab, intravitreal dexamethasone

**Q.** For `C[C@H]1c2cccc(O)c2C(=O)C2=C(O)[C@]3(O)C(=O)C(C(N)=O)=C(O)[C@@H](N(C)C)[C@@H]3[C@@H](O)[C@@H]21` [doxycycline], which “antibacterial effect on intestinal flora” value (intestinal flora) is on record?
**A.** Its value is “no antibacterial effect”.

**Q.** What about the tolerability (adult periodontitis; 10 mg daily, 20 mg daily or 20 mg twice daily, 9-12 months) of the same compound?
**A.** Its tolerability is “well-tolerated”.

**Q.** And the resistance to doxycycline (adult periodontitis; during the course of the study)?
**A.** Its resistance to doxycycline is “no resistance developed”.

**Q.** What about the “liver or kidney function tests versus control group” value (adult periodontitis; treatment groups) of the same compound?
**A.** Its value is “No clinically significant differences”.

**Q.** What about the microbiological resistance (chronic periodontitis) of the same compound?
**A.** The microbiological resistance was “no sign of microbiological resistance”.

**Q.** And the safety issues (chronic periodontitis)?
**A.** The safety issues was “no significant safety issues”.

**Q.** And the “number of adverse events versus placebo group” value [1]?
**A.** Its value is “equivalent”.

**Q.** With `CN(C)c1ccc(O)c2c1C[C@H]1C[C@H]3[C@H](N(C)C)C(O)=C(C(N)=O)C(=O)[C@@]3(O)C(O)=C1C2=O` [minocycline] as the compound, how does the safety concerns [2] read?
**A.** The safety concerns was “No safety concerns were identified”.

**Q.** And the “levels in the brain relative to doxycycline at the same dose” value?
**A.** The value was roughly 3 fold.
